Measured values published in US20130004053A1, “System and method for automatic color segmentation and minimum significant response for measurement of fractional localized intensity of cellular compartments” (Vala Sciences, Inc., priority 2002, published 2013).

Columns and labels:
[1] = tested on: NFκB p65 cytoplasm-to-nucleus translocation in HUVEC cells; conditions: previous reports [Ding et al.]; cited from earlier work
[2] = tested on: NFκB p65 cytoplasm-to-nucleus translocation in HUVEC cells; assay: TNFα-induced NFκB cytoplasm-nucleus translocation in HUVEC (FLIN); type: cell-based, human
Procedure: The cells used in these studies were primary human umbilical vein endothelial cells (HUVEC) obtained from Clonetics Corporation. The cells were maintained in culture under standard conditions and passaged using Clonetics' proprietary EGM medium and reagent system. Since they are not transformed, HUVECs, generally become senescent after nine or ten passages.
Prior to assay, cells were transferred to 96-well plates (Packard black ViewPlate) and incubated overnight to yield cell monolayers that were approximately 25% confluent. Plates used to determine a statistically optimal cell density for the assay were made by seeding wells at 5000, 2500, and 1000 cells per well and incubating overnight. […] Translocation of NFκB from the cytoplasm to the nucleus was assessed by visual examination of sample wells with a confocal microscope system. […]
Fractional Localized Intensity Measurements on TNFα-induced NFκB Cytoplasm-Nucleus Translocation: Immunofluorescent staining of the NFκB p65 regulatory subunit allows for easy characterization of the intercellular NFκB distribution by visual inspection of images acquired during scanning. The majority of fluorescence lies outside the nuclear area in unstimulated cells, while a substantial amount co-locates with the nuclear mask subsequent to maximal stimulation with TNFα (FIG. 11). […]

tumor necrosis factor α [TNFα]
fraction of p65 to translocate on stimulus, of gross amount in unstimulated cell cytoplasm [1]: 20%
translocation of labeled NFκB, average ([2]; 200 U/ml TNFα, 15 m, average over cellular densities): 18.80%
gross p65 translocated upon maximal stimulation ([2]; maximal stimulation): ≈ 20%
